# Where “and” joins values, the source holds several entries; their conditions need not be identical. Identical values can stand only once. Entries after “also recorded” stand apart in the source; their conditions may differ.
# Assays:
# platelets [1] = conditions: platelets cryopreserved with DMSO; cited from earlier work
# erythrocyte membranes = assay: FTIR membrane phase transitions of intact erythrocytes (CH2 symmetric stretch around 2850 cm^-1)
# mesenchymal stem cells [2] = assay: Lucifer yellow CH loading of mesenchymal stem cells, viability by trypan blue exclusion; assay type: cell-based, human; conditions: LYCH loading over 3.5 hours, 37° C.
# Text: Lucifer Yellow CH-Loading. […] The pellet was split between two treatments.
# human platelets = assay: Loading of platelets with trehalose, quantified by anthrone reaction; assay type: cell-based; conditions: 37° C., after 2 hours (rapid linear uptake)
# Method: Loading of Platelets with Trehalose. Washed platelets in a concentration of 1-2 10^9 platelets/ml were incubated at various temperatures in the presence of 1-20 mg/ml trehalose. Incubation temperatures were chosen from 4° C. to 37° C. Incubation times were varied from 0.5 to 4 hours. After incubation the platelet solutions were washed in buffer A two times (by centrifugation at 14,000 RPM for 20 s in a table centrifuge). Platelet counts were obtained on a coulter counter. Platelets were pelleted (45 S at 14,000 RPM) and sugars were extracted from the pellet using 80% methanol. The samples were heated for 30 minutes at 80° C. […] The amount of trehalose in the platelets was quantified using the anthrone reaction (Umbreit et al., Mamometric and Biochemical Techniques, 5th Edition, 1972). […] Then the samples were cooled on ice and the absorbance was measured at 620 nm on a Perkin Elmer spectrophotometer. The amount of platelet associated trehalose was determined using a standard curve of trehalose.
# Quantification of Trehalose and LYCH Concentration. Uptake was calculated for each sample as micrograms of trehalose or LYCH per platelet. The internal trehalose concentration was calculated assuming a platelet radius of 1.2 μm and by assuming that 50% of the platelet volume is taken up by the cytosol (rest is membranes). […]
# platelets [3] = assay: Stability and morphology of platelets during trehalose incubation (microscopy, flow cytometric analysis); assay type: cell-based, human; conditions: 4 hours incubation at 37° C., 25 mM external trehalose
# Method: The stability of the platelets during a 4 hours incubation period was studied using microscopy and flow cytometric analysis. […] No signs of microvesicle formation could be observed after 4 hours incubation, as can be judged by the stable relative proportion of microvesicle gated cells (less than 3%). The formation of microvesicles is usually considered as the first sign of platelet activation (Owners et al., Trans. Med. Rev., 8, 27-44, 1994). Characteristic antigens of platelet activation include: glycoprotein 53 (gp53, a lysosomal membrane marker), PECAM-1 (platelet endothelial cell adhesion molecule-1, an alpha granule constituent), and P-selection (an alpha granule membrane protein).
# mesenchymal stem cells [4] = assay: Growth curves of mesenchymal stem cells in presence of 90 mM trehalose; assay type: cell-based, human
# Method: Growth Curves. MSCs were plated into 12-welled plates at approximately the same seeding density used for T-185 flasks in standard Osiris protocols (5900 cells/cm^2 with fluid volume of 0.189 mL/cm^2). Three wells for each condition at each time point were trypsinized and counted. Data for cells grown in the presence of trehalose were lost for the first two time points. FIG. 13 is a graph illustrating growth curves for the mesenchymal stem cells in the presence or absence of 90 mM trehalose with the open triangle data representing cells grown in standard medium for 24 hours, after which 90 mM trehalose was added.
# erythrocyte ghosts = assay: FTIR thermotropic response of erythrocyte ghosts; assay type: cell-based, human; conditions: MβCD treated ghosts
# Method: Cells were incubated at 37° C. for one hour in the presence of 10 mM methyl-β-cyclodextrin (MβCD) in order to remove cholesterol from the plasma membranes. Erythrocyte ghosts were prepared.
# FTIR Spectroscopy and Sample Preparation. […] Intact cells were cooled to −5° C., kept at this temperature for 15 minutes, and then rewarmed to determine the phase transitions. […] Four scans were accumulated for each spectrum between 3600-900 cm^−1 at 4 cm^−1 resolution.
# Inverted second derivative spectra were normalized on the lipid […] 2850 cm^−1. Band positions were determined as described previously. The wavenumber (cm^−1) of the CH2 symmetric stretching vibration was plotted as a function of temperature. […] For the protein studies, the spectral region between 1600 and 1500 cm^−1 selected.
# [5] = Table III, Example 11, five blood donors, standard error, 10 mM MβCD
molecule,measurement,setting,value
"C[S+](C)[O-] [DMSO, dimethyl sulfoxide]",overall responsiveness of frozen thawed platelets to various agonists compared with fresh platelets,platelets [1],less than 35%
CC(C)c1c(C(=O)Nc2ccccc2)c(-c2ccccc2)c(-c2ccc(F)cc2)n1CC[C@@H](O)C[C@@H](O)CC(=O)O [LIPITOR],total wavenumber excursion (from −5 to 45° C.),"erythrocyte membranes; erythrocytes of a blood donor who used LIPITOR, other donors 0.8",~1.5 cm⁻¹
"NNC(=O)NN1C(=O)c2cc(S(=O)(=O)O)cc3c(N)c(S(=O)(=O)O)cc(c23)C1=O [LYCH, lucifer yellow CH]",viability,mesenchymal stem cells [2],~70%
OC[C@H]1O[C@H](O[C@H]2O[C@H](CO)[C@@H](O)[C@H](O)[C@H]2O)[C@H](O)[C@@H](O)[C@@H]1O [trehalose],trehalose uptake,human platelets,3.3×10^−10 mol/m^2s
same,morphological changes of platelets,platelets [3],No morphological changes
same,effect on cell count,mesenchymal stem cells [4]; after the third day,cell count started to drop significantly
same,effect on growth of the cells,mesenchymal stem cells [4]; up to the third day,did not interfere with growth; also recorded: does not interfere with the growth and viability
methyl-β-cyclodextrin [MβCD],"transition temperature, first transition",erythrocyte ghosts,4 °C
same,"transition temperature, fourth transition",erythrocyte ghosts,30 °C
same,"transition temperature, second transition",erythrocyte ghosts,12 °C
same,"transition temperature, third transition",erythrocyte ghosts,20 °C
same,wavenumber excursion from −5 to 45° C.,"erythrocyte membranes; Example 10, after cholesterol removal (control 0.7)",2.9 cm⁻¹
same,wavenumber excursion from −5 to 45° C.,"erythrocyte membranes; Example 11, after cholesterol removal (control 0.7)",2.9 cm⁻¹
same,"Cooperativity, Low Transition","erythrocyte membranes; Table II, Example 10, 1 mM MβCD, 37° C., one hour",0.051 ± 0.004 cm^−1/° C.
same,"Cooperativity, High Transition",erythrocyte membranes; [5],0.091 cm^−1/° C. and 0.091 ± 0.020 cm^−1/° C.
same,"Cooperativity, Low Transition",erythrocyte membranes; [5],0.051 ± 0.004 cm^−1/° C.
same,"Cooperativity, Middle Transition",erythrocyte membranes; [5],0.095 cm^−1/° C. and 0.095 ± 0.015 cm^−1/° C.
same,"Transition Temperature, High Transition",erythrocyte membranes; [5],35 °C and 35.4 ± 1.5 °C
same,"Transition Temperature, Low Transition",erythrocyte membranes; [5],15 °C and 15.3 ± 0.8 °C
same,"Transition Temperature, Middle Transition",erythrocyte membranes; [5],26 °C and 26.0 ± 0.8 °C
